Measured values reported in ChEMBL document CHEMBL2040766, “Hemisynthesis and antiproliferative properties of mono-[O-(14-benzoylaconine-8-yl)]esters and bis-[O-(14-benzoylaconine-8-yl)]esters” (Eur J Med Chem, 2012).

Legend:
A549 = experiment: Cytotoxicity against human A549 cells incubated for 24 hrs measured 48 hrs post cell re-growth post compound dose by MTT assay; assay type: functional, cell-based
MCF7 [1] = experiment: Cytotoxicity against human MCF7 cells incubated for 24 hrs measured 48 hrs post cell re-growth post compound dose by MTT assay; assay type: functional, cell-based
HCT-15 [2] = experiment: Cytotoxicity against human HCT15 cells incubated for 24 hrs measured 48 hrs post cell re-growth post compound dose by MTT assay; assay type: functional, cell-based
Mus musculus [3] = experiment: Toxicity in NOD.Cg-Prkdcscid Il2rgtmw/SzJ jax 005557 mouse xenografted with human HCT15 cells assessed as weight loss at 10 mg/kg, iv administered as 5 doses every 3 days starting at day 7 post-tumor grafting relative to vehicle treated control; assay type: organism-based, HCT-15; set-up: dose 10 mg/kg, route intravenous; details: in vivo, 72 h
HCT-15 [4] = experiment: Antitumor activity against human HCT15 cells xenografted in NOD.Cg-Prkdcscid Il2rgtmw/SzJ jax 005557 mouse assessed as tumor weight at 10 mg/kg, iv administered as 5 doses every 3 days starting at day 7 post-tumor grafting measured on day 25 relative to vehicle treated control; assay type: functional
MCF7 [5] = experiment: Antitumor activity against human MCF7 cells xenografted in NOD.Cg-Prkdcscid Il2rgtmw/SzJ jax 005557 mouse assessed as tumor weight at 10 mg/kg, iv administered as weekly four doses starting at day 13 post-tumor grafting measured on day 45 relative to vehicle treated control; assay type: functional
MCF7 [6] = experiment: Antitumor activity against human MCF7 cells xenografted in NOD.Cg-Prkdcscid Il2rgtmw/SzJ jax 005557 mouse assessed as tumor weight at 10 mg/kg, iv administered as 5 doses every 4 days starting at day 9 post-tumor grafting measured on day 45 relative to vehicle treated control; assay type: functional
Mus musculus [7] = experiment: Toxicity in NOD.Cg-Prkdcscid Il2rgtmw/SzJ jax 005557 mouse xenografted with human MCF7 cells assessed as weight loss at 10 mg/kg, iv administered as weekly four doses starting at day 13 post-tumor grafting relative to vehicle treated control; assay type: organism-based; set-up: dose 10 mg/kg, route intravenous; details: in vivo
Mus musculus [8] = experiment: Toxicity in NOD.Cg-Prkdcscid Il2rgtmw/SzJ jax 005557 mouse xenografted with human MCF7 cells assessed as weight loss at 10 mg/kg, iv administered as 5 doses every 4 days starting at day 9 post-tumor grafting relative to vehicle treated control; assay type: organism-based; set-up: dose 10 mg/kg, route intravenous; details: in vivo, 96 h
[9] = Toxicity in iv dosed NOD.Cg-Prkdcscid Il2rgtmw/SzJ jax 005557 mouse assessed as maximum tolerated dose at 10 mg/kg, iv administered as 5 doses every 3 days starting at day 7 post-tumor grafting; assay type: organism-based; set-up: dose 10 mg/kg, route intravenous; details: in vivo
[10] = Toxicity in iv dosed NOD.Cg-Prkdcscid Il2rgtmw/SzJ jax 005557 mouse assessed as maximum tolerated dose at 10 mg/kg, iv administered as weekly four doses starting at day 13 post-tumor grafting; assay type: organism-based; set-up: dose 10 mg/kg, route intravenous; details: in vivo
[11] = Toxicity in iv dosed NOD.Cg-Prkdcscid Il2rgtmw/SzJ jax 005557 mouse assessed as maximum tolerated dose at 10 mg/kg, iv administered as 5 doses every 4 days starting at day 9 post-tumor grafting; assay type: organism-based; set-up: dose 10 mg/kg, route intravenous; details: in vivo
Mus musculus [12] = experiment: Toxicity in NOD.Cg-Prkdcscid Il2rgtmw/SzJ jax 005557 mouse xenografted with human HCT15 cells assessed as mortality incidence at 10 mg/kg, iv administered as 5 doses every 3 days starting at day 7 post-tumor grafting relative to vehicle treated control; assay type: organism-based, HCT-15; set-up: dose 10 mg/kg, route intravenous; details: in vivo, 72 h
Mus musculus [13] = experiment: Toxicity in NOD.Cg-Prkdcscid Il2rgtmw/SzJ jax 005557 mouse xenografted with human MCF7 cells assessed as mortality incidence at 10 mg/kg, iv administered as weekly four doses starting at day 13 post-tumor grafting relative to vehicle treated control; assay type: organism-based; set-up: dose 10 mg/kg, route intravenous; details: in vivo
Mus musculus [14] = experiment: Toxicity in NOD.Cg-Prkdcscid Il2rgtmw/SzJ jax 005557 mouse xenografted with human MCF7 cells assessed as mortality incidence at 10 mg/kg, iv administered as 5 doses every 4 days starting at day 9 post-tumor grafting relative to vehicle treated control; assay type: organism-based; set-up: dose 10 mg/kg, route intravenous; details: in vivo, 96 h
Mus musculus [15] = experiment: Toxicity in NOD.Cg-Prkdcscid Il2rgtmw/SzJ jax 005557 mouse xenografted with human HCT15 cells assessed as induction of toxic effect at 10 mg/kg, iv administered as 5 doses every 3 days starting at day 7 post-tumor grafting relative to vehicle treated control; assay type: organism-based, HCT-15; set-up: dose 10 mg/kg, route intravenous; details: in vivo, 72 h
Mus musculus [16] = experiment: Toxicity in NOD.Cg-Prkdcscid Il2rgtmw/SzJ jax 005557 mouse xenografted with human MCF7 cells assessed as induction of toxic effect at 10 mg/kg, iv administered as weekly four doses starting at day 13 post-tumor grafting relative to vehicle treated control; assay type: organism-based; set-up: dose 10 mg/kg, route intravenous; details: in vivo
Mus musculus [17] = experiment: Toxicity in NOD.Cg-Prkdcscid Il2rgtmw/SzJ jax 005557 mouse xenografted with human MCF7 cells assessed as induction of toxic effect at 10 mg/kg, iv administered as 5 doses every 4 days starting at day 9 post-tumor grafting relative to vehicle treated control; assay type: organism-based; set-up: dose 10 mg/kg, route intravenous; details: in vivo, 96 h

SMILES	IC50 (A549)	IC50 (MCF7 [1])	IC50 (HCT-15 [2])	further results
CCN1C[C@]2(COC)[C@H](O)C[C@H](OC)[C@]34C1[C@H]([C@H](OC)[C@H]23)[C@]1(OC(=O)CCCCC(=O)O)[C@H]2[C@@H](OC(=O)c3ccccc3)[C@](O)(C[C@H]24)[C@@H](OC)[C@@H]1O	> 60 µM	> 60 µM	> 60 µM	–
CCN1C[C@]2(COC)[C@H](O)C[C@H](OC)[C@]34C1[C@H]([C@H](OC)[C@H]23)[C@]1(OC(=O)CCC(=O)O)[C@H]2[C@@H](OC(=O)c3ccccc3)[C@](O)(C[C@H]24)[C@@H](OC)[C@@H]1O	> 60 µM	> 60 µM	> 60 µM	–
CCN1C[C@]2(COC)[C@H](O)C[C@H](OC)[C@]34C1[C@H]([C@H](OC)[C@H]23)[C@]1(OC(=O)CCCC(=O)O)[C@H]2[C@@H](OC(=O)c3ccccc3)[C@](O)(C[C@H]24)[C@@H](OC)[C@@H]1O	> 60 µM	> 60 µM	> 60 µM	–
CCN1C[C@]2(COC)[C@H](O)C[C@H](OC)[C@]34C1[C@H]([C@H](OC)[C@H]23)[C@]1(OC(=O)CCCCCC(=O)O)[C@H]2[C@@H](OC(=O)c3ccccc3)[C@](O)(C[C@H]24)[C@@H](OC)[C@@H]1O	> 60 µM	> 60 µM	> 60 µM	–
CCN1C[C@]2(COC)[C@H](O)C[C@H](OC)[C@]34C1[C@H]([C@H](OC)[C@H]23)[C@]1(OC(=O)CCCCCCC(=O)O)[C@H]2[C@@H](OC(=O)c3ccccc3)[C@](O)(C[C@H]24)[C@@H](OC)[C@@H]1O	> 60 µM	> 60 µM	> 60 µM	–
CCN1C[C@]2(COC)[C@H](O)C[C@H](OC)[C@]34C1[C@H]([C@H](OC)[C@H]23)[C@]1(OC(=O)CCCCCCCC(=O)O)[C@H]2[C@@H](OC(=O)c3ccccc3)[C@](O)(C[C@H]24)[C@@H](OC)[C@@H]1O	> 60 µM	> 60 µM	> 60 µM	–
CCN1C[C@]2(COC)[C@H](O)C[C@H](OC)[C@]34C1[C@H]([C@H](OC)[C@H]23)[C@]1(OC(=O)CCCCCCCCC(=O)O)[C@H]2[C@@H](OC(=O)c3ccccc3)[C@](O)(C[C@H]24)[C@@H](OC)[C@@H]1O	> 60 µM	> 60 µM	> 60 µM	–
CCN1C[C@]2(COC)[C@H](O)C[C@H](OC)[C@]34C1[C@H]([C@H](OC)[C@H]23)[C@]1(OC(=O)CCCCCCCCCC(=O)O)[C@H]2[C@@H](OC(=O)c3ccccc3)[C@](O)(C[C@H]24)[C@@H](OC)[C@@H]1O	> 60 µM	> 60 µM	> 60 µM	–
CCN1C[C@]2(COC)[C@H](O)C[C@H](OC)[C@]34C1[C@H]([C@H](OC)[C@H]23)[C@]1(OC(=O)CCC(=O)O[C@]23[C@H]5[C@@H](OC(=O)c6ccccc6)[C@](O)(C[C@H]5[C@@]56C7[C@@H]2[C@H](OC)[C@@H]5[C@](COC)(CN7CC)[C@H](O)C[C@@H]6OC)[C@@H](OC)[C@@H]3O)[C@H]2[C@@H](OC(=O)c3ccccc3)[C@](O)(C[C@H]24)[C@@H](OC)[C@@H]1O	> 60 µM	> 60 µM	> 60 µM	–
CCN1C[C@]2(COC)[C@H](O)C[C@H](OC)[C@]34C1[C@H]([C@H](OC)[C@H]23)[C@]1(OC(=O)CCCC(=O)O[C@]23[C@H]5[C@@H](OC(=O)c6ccccc6)[C@](O)(C[C@H]5[C@@]56C7[C@@H]2[C@H](OC)[C@@H]5[C@](COC)(CN7CC)[C@H](O)C[C@@H]6OC)[C@@H](OC)[C@@H]3O)[C@H]2[C@@H](OC(=O)c3ccccc3)[C@](O)(C[C@H]24)[C@@H](OC)[C@@H]1O	> 60 µM	> 60 µM	> 60 µM	–
CCN1C[C@]2(COC)[C@H](O)C[C@H](OC)[C@]34C1[C@H]([C@H](OC)[C@H]23)[C@]1(OC(=O)CCCCC(=O)O[C@]23[C@H]5[C@@H](OC(=O)c6ccccc6)[C@](O)(C[C@H]5[C@@]56C7[C@@H]2[C@H](OC)[C@@H]5[C@](COC)(CN7CC)[C@H](O)C[C@@H]6OC)[C@@H](OC)[C@@H]3O)[C@H]2[C@@H](OC(=O)c3ccccc3)[C@](O)(C[C@H]24)[C@@H](OC)[C@@H]1O	> 60 µM	> 60 µM	> 60 µM	–
CCN1C[C@]2(COC)[C@H](O)C[C@H](OC)[C@]34C1[C@H]([C@H](OC)[C@H]23)[C@]1(OC(=O)CCCCCC(=O)O[C@]23[C@H]5[C@@H](OC(=O)c6ccccc6)[C@](O)(C[C@H]5[C@@]56C7[C@@H]2[C@H](OC)[C@@H]5[C@](COC)(CN7CC)[C@H](O)C[C@@H]6OC)[C@@H](OC)[C@@H]3O)[C@H]2[C@@H](OC(=O)c3ccccc3)[C@](O)(C[C@H]24)[C@@H](OC)[C@@H]1O	9.5 µM	7.56 µM	4.64 µM	–
CCN1C[C@]2(COC)[C@H](O)C[C@H](OC)[C@]34C1[C@H]([C@H](OC)[C@H]23)[C@]1(OC(=O)CCCCCCC(=O)O[C@]23[C@H]5[C@@H](OC(=O)c6ccccc6)[C@](O)(C[C@H]5[C@@]56C7[C@@H]2[C@H](OC)[C@@H]5[C@](COC)(CN7CC)[C@H](O)C[C@@H]6OC)[C@@H](OC)[C@@H]3O)[C@H]2[C@@H](OC(=O)c3ccccc3)[C@](O)(C[C@H]24)[C@@H](OC)[C@@H]1O	7.53 µM	6.9 µM	4.01 µM	T/C (Mus musculus [3]): 9.34%; T/C (HCT-15 [4]): 49%; T/C (MCF7 [5]): 56%; T/C (MCF7 [6]): 36%; T/C (Mus musculus [7]): 0%; T/C (Mus musculus [8]): 0%; MTD at 72 h [9]: 15 mg/kg; MTD [10]: 15 mg/kg; MTD at 96 h [11]: 15 mg/kg; Activity (Mus musculus [12]): Non-toxic; Activity (Mus musculus [13]): Non-toxic; Activity (Mus musculus [14]): Non-toxic; Activity (Mus musculus [15]): Non-toxic; Activity (Mus musculus [16]): Non-toxic; Activity (Mus musculus [17]): Non-toxic
CCN1C[C@]2(COC)[C@H](O)C[C@H](OC)[C@]34C1[C@H]([C@H](OC)[C@H]23)[C@]1(OC(=O)CCCCCCCC(=O)O[C@]23[C@H]5[C@@H](OC(=O)c6ccccc6)[C@](O)(C[C@H]5[C@@]56C7[C@@H]2[C@H](OC)[C@@H]5[C@](COC)(CN7CC)[C@H](O)C[C@@H]6OC)[C@@H](OC)[C@@H]3O)[C@H]2[C@@H](OC(=O)c3ccccc3)[C@](O)(C[C@H]24)[C@@H](OC)[C@@H]1O	19.5 µM	16.9 µM	28 µM	–
